The values that follow come from article PMC6958329, “New ^55Co-labeled Albumin-Binding Folate Derivatives as Potential PET Agents for Folate Receptor Imaging” (Pharmaceuticals, 2019).

The pKa is the pH at which an ionisable group is half protonated.

The nature of data set [1]: In vitro stability in PBS (radio-TLC). It is filed as physicochemical. The conditions noted are these: 37 °C, normalized to 0 h, n = 3. As to the method: (§1) Stability of the ^55Co-labeled folates was monitored over a period of 24 h in phosphate buffered saline (PBS) and mouse serum, to monitor the stability of a dose prior to injection (for potential shipment to a PET center) and match the longest biodistribution time point, respectively. The percentage of the intact complex was monitored at 1 h, 4 h, and 24 h via radio-TLC (PBS) or HPLC (mouse serum). […] In PBS, both radioconjugates retained 93% or greater stability at 24 h. […] As a control, one group of replicate serum tubes contained only [^55Co]CoCl2. […] Therefore, the peak corresponding to free [^55Co]CoCl2 (tR = 2.2 min) was used to determine the overall serum stability of the ^55Co-labeled chelates, which was approximately 95% for each compound at 24 h.
(§2) The ^55Co-labeled folate derivatives were diluted 10-fold in 10 mM PBS (pH = 7.4) or whole mouse serum (EMD Millipore, Burlington, MA) in 1.5 mL centrifuge tubes to final volumes of 100 μL. The tubes were incubated at 37 °C with vortexing at 900 rpm using an Eppendorf ThermoMixer C (Eppendorf, Hamburg, Germany) equipped with a 1.5 mL heating block. In the case of PBS stability, three replicate tubes were prepared with average final activity concentrations of 37 kBq (1 μCi) [^55Co]Co-cm10/μL or 37 kBq (1 μCi) [^55Co]Co-rf42/μL, and the final concentrations of precursor were 0.07 mM of cm10 or rf42. The percent of the intact complex was determined by analyzing 1 μL aliquots of each solution by radio-TLC at 1 h, 4 h and 24 h. For mouse serum stability, three replicate tubes were prepared for each time point for each complex. The final average activity concentrations were 11.1 kBq (0.3 μCi) [^55Co]Co-cm10/μL and 7.4 kBq (0.2 μCi) [^55Co]Co-rf42/μL and 0.02 mM final folate concentration. A control sample was prepared for each time point that contained an average of 10.4 kBq/μL of [^55Co]CoCl2. At each time point, 300 μL of ACN was added to each tube to precipitate serum proteins. The tubes were centrifuged at 4500 rpm for 5 min using a benchtop microcentrifuge (Eppendorf, Hamburg, Germany) and the supernatants collected. The pellets were washed once more, and the supernatants were collected and combined with the first ACN wash. The activities in the pellets and supernatants were determined using a 2480 Wizard2 Automatic Gamma Counter (Perkin Elmer, Waltham, MA, USA) to determine the amount of activity associated with the protein pellet. To determine the percentage of intact complex, the supernatant was diluted 2-fold with water, and 100 μL of this mixture was injected into the HPLC.

A short description of data set [2]: In vitro stability in mouse serum (HPLC). It is filed as in vitro ADME. The settings on record: 37 °C, normalized to 0 h, n = 3. As to the method:
as §1, §2

Details of data set [3]: method as in PMID 18246556, doi:10.1016/S0277-5387(99)00369-1, doi:10.1351/pac200577081445. The settings on record: remaining carboxylic acid O of DOTA in the Co(II) complex; cited from earlier work.

Several values for one entry are separate records, joined by “and”; a condition that tells them apart may be missing. Identical values can stand only once.

Take `Nc1nc2ncc(CNc3ccc(C(=O)N[C@@H](CCC(=O)NC(CCCCNC(=O)CN4CCN(CC(=O)O)CCN(CC(=O)O)CCN(CC(=O)O)CC4)C(=O)NC(CCCCNC(=O)CCCc4ccc(I)cc4)C(=O)O)C(=O)O)cc3)nc2c(=O)[nH]1.[55Co]` (stereo partly shown) [[^55Co]Co-cm10]: the “percent intact complex, PBS” value was 97 ± 2% in data set [1] (1 h); 95 ± 1% in data set [1] (4 h); 93% and 93.4 ± 0.3% in data set [1] (24 h). For the same compound, the “percent intact complex, mouse serum” value in data set [2] (1 h) was 98 ± 1%; in data set [2] (4 h) it was 97.8 ± 0.6%; in data set [2] (24 h) it was 94% and 95 ± 1%. Besides, the pKa in data set [3] was 4.04.
Turning to `Nc1nc2ncc(CNc3ccc(C(=O)N[C@@H](CCC(=O)NC(CCCCNC(=O)CCC(C(=O)O)N4CCN(CC(=O)O)CCN(CC(=O)O)CC4)C(=O)NC(CCCCNC(=O)CCCc4ccc(I)cc4)C(=O)O)C(=O)O)cc3)nc2c(=O)[nH]1.[55Co]` (stereo partly shown) [[^55Co]Co-rf42], the “percent intact complex, PBS” value in data set [1] (1 h) was 98 ± 2%; in data set [1] (4 h) it was 95.6 ± 0.9%; in data set [1] (24 h), 93% and 93 ± 3%. Moreover, the “percent intact complex, mouse serum” value in data set [2] (1 h) was 97.5 ± 0.5%; in data set [2] (4 h) it was 97.2 ± 0.4%; in data set [2] (24 h), 94% and 94.6 ± 0.6%.
